In patent US8163287B2, “Combination therapy of her expressing tumors” (Genentech, Inc., priority 2005, dated 2012):

Assays:
[1] = tested on: human lung, breast and ovarian cancer xenograft models; assay: Antitumor activity in human cancer xenograft models (26 tumor xenografts); assay type: in vivo, NMRI nu/nu nude mice; conditions: for tumors responsive to both erlotinib and pertuzumab: of 26 tumors (12%); for tumors that did not respond to treatment with either pertuzumab or erlotinib: of the 26 tumors tested (42%), pertuzumab i.p. 100 mg/kg, erlotinib orally 25 mg/kg
Text: (§1) The tumor models were established by implanting tumor tissues obtained from human patients into randomized NMRI nu/nu nude mice (Oncotest GmbH, Freiburg, Germany) and tumors were propagated until stable tumor growth behavior was observed. After removal of the tumor from the donor mice, the tumor was cut into fragments (2 mm diameter) and placed in RPMI 1640 culture medium until subcutaneous implantation in the mice. The tumor fragments (two per mouse) were transplanted by tweezers. The mice were monitored daily.
(§2) The substance was diluted with a buffer containing 10 mM L-histidine, 240 mM sucrose, 0.02% polysorbate 20 pH 6 (HCl). The solutions were prepared fresh daily. Erlotinib was delivered as a ready-to-use formulation dissolved in 6% captisol.
Erlotinib was administered orally (25 mg/kg). The control mice received the vehicle by the same procedure and on the same schedule as the test compound.
(§3) The antitumor effect was evaluated following maximum tumor inhibition versus the control group.
Tumor volumes were determined by two-dimensional measurement with a caliper at the day of randomization (day 0) and then 2-3 times weekly. The tumor volume was calculated using the following formula: Tumor Volume=(a×b^2)×0.5,
where a and b represent two perpendicular tumor diameters, a=length (longer diameter), b=width (shorter diameter). All mice of a treatment group were sacrificed when the tumors reached mean diameters of approximately 16 mm.
Relative tumor volumes (RTV) were calculated for each individual tumor, by dividing the tumor volume on day X (Vx) by the tumor volume on day 0 (V0) multiplied by 100%. The tumor volume of a treatment group was expressed as the median RTV of all mice of the group. Median RTV volumes were used for drawing growth curves and treatment evaluation.
Optimal tumor growth inhibition at a particular day within the experimental period was calculated from the median RTV values of the test versus control groups multiplied by 100% (T/C 100%).
Relative tumor volume (Tx/T0) was defined as the median relative tumor volume of the test group on day X divided by the medium relative tumor volume of the test group on day 0, multiplied by 100.
T/C % and Tx/T0 were used for activity rating of the levels of efficacy, which were defined as follows: […]

[2] = tested on: incurable, locally advanced, recurrent or metastatic solid tumors; conditions: cited from earlier work
[3] = cited from earlier work
[4] = tested on: lung adenocarcinoma designated LXFA 629; assay: Antitumor activity in the LXFA 629 xenograft; assay type: in vivo, NMRI nu/nu nude mice; conditions: each agent alone; pertuzumab i.p. 100 mg/kg, erlotinib orally 25 mg/kg
Text: as §1, §2
Erlotinib was administered orally (25 mg/kg). […]
as §3
Tumor volumes were determined by two-dimensional measurement with a caliper at the day of randomization (day 0) and then 2-3 times weekly. The tumor volume was calculated using the following formula: Tumor Volume=(a×b^2)×0.5, […]
Relative tumor volumes (RTV) were calculated for each individual tumor, by dividing the tumor volume on day X (Vx) by the tumor volume on day 0 (V0) multiplied by 100%. The tumor volume of a treatment group was expressed as the median RTV of all mice of the group. […]

## pertuzumab: antibody comprising the light and heavy chain amino acid sequences of SEQ ID NOS. 11 and 12; HER dimerization inhibitor
[1]; NSCLC only, of 21 (14%)
  NSCLC tumors that responded to pertuzumab but not erlotinib: 3 tumors
[1]; monotherapy
  tumors responsive to both erlotinib and pertuzumab: 3 tumors
  tumors that did not respond to treatment with either pertuzumab or erlotinib: 11 tumors
[2]; Phase I, single agent
  confirmed partial responses: Two
[2]; of 20 patients evaluable for response
  tumor regression achieved: 3 patients
[2]; patients, intravenously every 3 weeks
  tolerability: generally well tolerated
[3]; doses of 2.0-15 mg/kg
  pharmacokinetics (dose linearity): linear
[3]; patients
  antibodies to pertuzumab: not detected

## C#Cc1cccc(Nc2ncnc3cc(OCCOC)c(OCCOC)cc23)c1 [erlotinib, N-(3-ethynylphenyl)-6,7-bis(2-methoxyethoxy)-4-quinazolinamine]
[1]; NSCLC only, of 21 (23%)
  NSCLC tumors that responded to erlotinib but not to pertuzumab: 5 tumors
[1]; NSCLC only, out of the 21 tumors tested (43%)
  NSCLC tumors with no response to pertuzumab or erlotinib monotherapy: 9 tumors
[1]; monotherapy
  tumors responsive to both erlotinib and pertuzumab: 3 tumors
  tumors that did not respond to treatment with either pertuzumab or erlotinib: 11 tumors
[1]; monotherapy, of 26 tumors (27%)
  tumors moderately responsive to erlotinib, but not pertuzumab: 7 tumors
[4]
  activity rating (response to monotherapy): moderate response
